In patent US12227517B2, “Pyridazinyl-thiazolecarboxamide compound” (Astellas Pharma Inc., priority 2019, dated 2025):
Structures can show the parent of a compound that is named as a salt.

Key:
human recombinant DGK ξ = human recombinant DGK ξ (Homo sapiens (Human), UniProt Q13574); assay: Evaluation of DGK ξ inhibitory effect (ADP-Glo Kinase Assay); format: biochemical
MC38 cells = assay: Antitumor effect in syngeneic mouse model bearing mouse colon adenocarcinoma cell line MC38; format: in vivo; details: relative tumor growth inhibition, MC38, C57BL/6J mice, oral, twice a day day 1-10 and once on day 11
Experimental: Test Example 3: Evaluation of Antitumor Effect in Syngeneic Mouse Model Bearing Mouse Colon Adenocarcinoma Cell Line MC38
A cell suspension liquid prepared by suspending MC38 cells (supplied from National Cancer Institute) in PBS at 4.0×10^6 cells/mL was subcutaneously inoculated into 6-week-old female mice (C57BL/6J from Charles River Laboratories Japan, Inc.) in a volume of 50 μL. 4 days after the inoculation, the mice were grouped in such a manner that there was substantially no difference in tumor volume between groups, and administration of the test compound was started. The test was conducted with a solvent group and a test compound administration group each having 10 mice. 0.5% methylcellulose (Shin-Etsu Chemical Co., Ltd.) was orally administered to the solvent group, and 0.5% methylcellulose mixed with the test compound was orally administered to the test compound administration group. The administration was performed twice a day from day 1 to day 10 and once a day on day 11, and the tumor diameter and the body weight were measured twice a week. The following expression was used for calculation of the tumor volume. [tumor volume (mm^3)]=[tumor major diameter (mm)]×[tumor minor diameter (mm)]^2×0.5
The relative tumor growth inhibition (%) of the test compound was calculated, where the tumor volume of the test compound administration group immediately before the start of administration was set to 100% inhibition, and the tumor volume of the solvent group on the last day of administration was set to 0% inhibition. […] In the table, Ex represents the number of each Example described below.

Jurkat E6.1 cells = assay: Evaluation of IL-2 production in human T cell leukemia cell line Jurkat E6.1 (TCR stimulation anti-CD3/anti-CD28); format: cell-based; details: concentration at which IL-2 increased to 10 times the solvent control, Jurkat E6.1, anti-CD3/anti-CD28, 24 hours, read-out: EC10fold
Experimental: Test Example 2: Evaluation of IL-2 Production in Human T Cell Leukemia Cell Line Jurkat E6.1
The effect of the test compound on the IL-2 production by T cell receptor (TCR) stimulation (anti-CD3/anti-CD28) in Jurkat E6.1 cells (ECACC, 88042803) was evaluated.
A 5 μg/mL anti-CD3 antibody (eBioscience, Inc., OKT3 clone) diluted with phosphate buffer saline (PBS) was added to a 96-well plate (Iwaki & Co., Ltd.) at 50 μL/well, and left standing at 4° C. for 12 hours or more to provide an anti-CD3 antibody-coated plate in advance. When the plate was used for experiments, the plate was washed with 200 μL of PBS once, an anti-CD28 antibody (eBioscience, Inc., 28.2 clone) diluted to a concentration of […] with a culture medium (RPMI1640 (Sigma-Aldrich Co. LLC.) containing 10% fetal bovine serum (Hyclone Laboratories, Inc.)) was then added at 10 μL/well, and the plate was used for assay as a culture plate for TCR stimulation.
Subsequently, the test compound was mixed with Jurkat E6.1 cells in such a manner that an intended final concentration was obtained, and the mixture was plated at 90 μL/well so that the number of cells per well was 1×10^5 (that is, finally the culture was performed at 1×10^5 cells/100 μL/well). For culture cell conditions, the culture was performed at 37° C. in the presence of 5% CO2 using RPMI1640 medium containing 10% fatal bovine serum.
After 24 hours, the culture supernatant was collected, and IL-2 was quantitatively determined using AlphaLISA human IL2 Immunoassay Research Kit (PerkinElmer, Inc.). The IL-2 measurement was performed under Alpha Screen standard setting conditions (the fluorescence intensity at 570 nm was measured with an excitation wavelength of 680 nm) using EnVision 2104-0010 and EnVision 2104-0020 (PerkinElmer, Inc.). The IL-2 quantitative value of the solvent treatment control was set to 1, and the test compound concentration at which the IL-2 quantitative value of the test compound treatment sample increased to 10 times the IL-2 quantitative value of the control (EC10fold) was calculated by inverse estimation with the aid of Sigmoid-Emax model non-linear regression analysis. […] In the table, Ex represents the number of each Example described below.

B16-F1 cells = assay: Antitumor effect in syngeneic mouse model bearing mouse melanoma cell line B16-F1; format: in vivo; details: relative tumor growth inhibition, B16-F1, oral
Experimental: Test Example 4: Evaluation of Antitumor Effect in Syngeneic Mouse Model Bearing Mouse Melanoma Cell Line B16-F1
A cell suspension liquid prepared by suspending B16-F1 cells (ATCC, CRL-6323) in PBS at 2.0×10^6 cells/mL or 1.0×10^7 cells/mL was subcutaneously inoculated into 5-week-old female mice (C57BL/6J from Charles River Laboratories Japan, Inc.) in a volume of 50 μL. 5 days after the inoculation, the mice were grouped in such a manner that there was substantially no difference in tumor volume between groups, and administration of the test compound was started. The test was conducted with a solvent group and a test compound administration group each having 10 mice. 0.5% methylcellulose was orally administered to the solvent group, and 0.5% methylcellulose mixed with the test compound was orally administered to the test compound administration group. The administration was performed according to the regimen described in Table 4, and the tumor diameter and the body weight were measured twice a week. The following expression was used for calculation of the tumor volume. [tumor volume (mm^3)]=[tumor major diameter (mm)]×[tumor minor diameter (mm)]^2×0.5
The relative tumor growth inhibition (%) of the test compound was calculated, where the tumor volume of the test compound administration group immediately before the start of administration was set to 100% inhibition, and the tumor volume of the solvent group on the day after the last administration was set to 0% inhibition. […] In the table, Ex represents the number of each Example described below.

[1] = 0.1 mg/kg, 1/day, 8 days, 1 × 10^5 cells inoculated

Sequence of human recombinant DGK ξ (Q13574 whole entry): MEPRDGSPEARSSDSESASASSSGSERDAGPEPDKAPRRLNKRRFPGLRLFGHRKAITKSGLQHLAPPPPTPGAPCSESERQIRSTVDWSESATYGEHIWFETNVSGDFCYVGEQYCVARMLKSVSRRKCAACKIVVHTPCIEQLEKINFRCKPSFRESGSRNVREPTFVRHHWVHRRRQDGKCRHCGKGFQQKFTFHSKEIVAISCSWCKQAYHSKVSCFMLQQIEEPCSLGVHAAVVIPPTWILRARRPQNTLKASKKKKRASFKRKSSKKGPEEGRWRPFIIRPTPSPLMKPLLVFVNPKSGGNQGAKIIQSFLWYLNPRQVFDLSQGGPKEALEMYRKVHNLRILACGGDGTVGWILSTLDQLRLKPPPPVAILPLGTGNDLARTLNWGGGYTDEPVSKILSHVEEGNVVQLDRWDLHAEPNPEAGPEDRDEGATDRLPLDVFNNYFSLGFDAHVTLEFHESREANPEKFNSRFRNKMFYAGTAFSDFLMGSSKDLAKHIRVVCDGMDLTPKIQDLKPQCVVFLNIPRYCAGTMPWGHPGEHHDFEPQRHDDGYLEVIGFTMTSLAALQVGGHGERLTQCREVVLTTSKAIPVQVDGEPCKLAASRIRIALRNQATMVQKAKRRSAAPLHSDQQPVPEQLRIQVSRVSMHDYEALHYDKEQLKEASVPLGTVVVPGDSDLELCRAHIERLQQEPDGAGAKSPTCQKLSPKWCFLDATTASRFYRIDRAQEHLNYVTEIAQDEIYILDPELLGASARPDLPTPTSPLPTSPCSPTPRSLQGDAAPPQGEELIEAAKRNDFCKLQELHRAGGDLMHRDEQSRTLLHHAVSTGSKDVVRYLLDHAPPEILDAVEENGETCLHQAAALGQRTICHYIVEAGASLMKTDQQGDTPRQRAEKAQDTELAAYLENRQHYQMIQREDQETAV

`NC[C@H]1CCCN1c1c(NC(=O)c2csc(-c3ccnnc3)n2)ccc(Oc2ccccc2)c1C(F)(F)F` [Example 34] gave an IC50 (human recombinant DGK ξ) of 12 nM, an Antitumor effect (MC38 cells; 5 mg/kg) of 55% Inhibition and an EC50 (Jurkat E6.1 cells) of 30 nM. It also gave an Antitumor effect (B16-F1 cells; 1.5 mg/kg, 2/day, 10 days, 5 × 10^5 cells inoculated) of 48% Inhibition.

For `N[C@@H]1CCN2CCN(c3c(NC(=O)c4csc(-c5ccnnc5)n4)ccc(Oc4ccccc4)c3C(F)(F)F)C[C@@H]12` [Example 78, N-{2-[(8R,8aS)-8-aminohexahydropyrrolo[1,2-a]pyrazine-2(1H)-yl]-4-phenoxy-3-(trifluoromethyl)phenyl}-2-(pyridazin-4-yl)-1,3-thiazole-4-carboxamide], the IC50 (human recombinant DGK ξ) was 5 nM, the EC50 (Jurkat E6.1 cells) was 27 nM and the Antitumor effect (B16-F1 cells; 0.3 mg/kg, 1/day, 10 days, 1 × 10^5 cells inoculated) was 30% Inhibition.

`NC[C@@H]1CCCN(c2c(NC(=O)c3csc(-c4ccnnc4)n3)ccc(Oc3ccccc3)c2C(F)(F)F)C1` [Example 9, N-{2-[(3S)-3-(aminomethyl)piperidin-1-yl]-4-phenoxy-3-(trifluoromethyl)phenyl}-2-(pyridazin-4-yl)-1,3-thiazole-4-carboxamide] showed an IC50 (human recombinant DGK ξ) of 8 nM, an Antitumor effect (MC38 cells; 5 mg/kg) of 64% Inhibition and an EC50 (Jurkat E6.1 cells) of 18 nM. It also gave an Antitumor effect (B16-F1 cells; 0.5 mg/kg, 2/day, 10 days, 5 × 10^5 cells inoculated) of 36% Inhibition.

`CN(C)[C@@H]1CCN2CCN(c3c(NC(=O)c4csc(-c5ccnnc5)n4)ccc(Oc4ccccc4)c3C(F)(F)F)C[C@@H]12` [Example 80] gave an IC50 (human recombinant DGK ξ) of 0.7 nM, an EC50 (Jurkat E6.1 cells) of 5 nM and an Antitumor effect (B16-F1 cells; 0.03 mg/kg, 1/day, 10 days, 1 × 10^5 cells inoculated) of 30% Inhibition.

For `CNC[C@@H]1CCCN(c2c(NC(=O)c3csc(-c4ccnnc4)n3)ccc(Oc3ccccc3F)c2C(F)(F)F)C1.Cl` [Example 10], the IC50 (human recombinant DGK ξ) was 8 nM, the Antitumor effect (MC38 cells; 4.7 mg/kg) was 60% Inhibition and the EC50 (Jurkat E6.1 cells) was 173 nM. The Antitumor effect (B16-F1 cells; [1]) was 42% Inhibition.

With `NC[C@@H]1CCCN(c2c(NC(=O)c3csc(-c4ccnnc4)n3)ccc(Oc3ccccc3F)c2C(F)(F)F)C1` [Example 33] the IC50 (human recombinant DGK ξ) was 5 nM, the Antitumor effect (MC38 cells; 5 mg/kg) was 36% Inhibition and the EC50 (Jurkat E6.1 cells) was 9 nM.

Compound `NC[C@@H]1CCCN(c2c(NC(=O)c3csc(-c4ccnnc4)n3)ccc(Oc3cccc(F)c3)c2C(F)(F)F)C1` [Example 11] has an IC50 (human recombinant DGK ξ) of 19 nM, an Antitumor effect (MC38 cells; 5 mg/kg) of 63% Inhibition and an EC50 (Jurkat E6.1 cells) of 32 nM.

`COCCN1CCC2(CC1)CN(c1c(NC(=O)c3csc(-c4ccnnc4)n3)ccc(Oc3ccccc3)c1C(F)(F)F)CCO2` [Example 59, N-{2-[9-(2-methoxyethyl)-1-oxa-4,9-diazaspiro[5.5]undecan-4-yl]-4-phenoxy-3-(trifluoromethyl)phenyl}-2-(pyridazin-4-yl)-1,3-thiazole-4-carboxamide dihydrochloride] showed an IC50 (human recombinant DGK ξ) of 2 nM, an EC50 (Jurkat E6.1 cells) of 36 nM and an Antitumor effect (B16-F1 cells; [1]) of 46% Inhibition.
